This is an account of results in patent US20200123175A1, “NOVEL ISOTHIAZOLO-BASED BICYCLES, PROCESSES FOR THEIR PREPARATION AND THEIR USE AS HERBICIDES AND/OR PLANT GROWTH REGULATORS” (Bayer CropScience Aktiengesellschaft, priority 2017, published 2020).

The test system of one experiment is ECHCG. Kind of experiment: Herbicidal action pre-emergence (PE). The class given is in vivo, Echinochloa crus-galli. The conditions noted are these: dosage 320 g/ha.
With `COCC(=O)Nc1nsc2c(=O)n(CC3CCCCC3)cnc12` [Example I-69], the ECHCG was 100.

As for `COC(=O)CC(=O)Nc1nsc2c(=O)n(CC3CCCCC3)cnc12` [Example I-71], the ECHCG was found to be 100.

`O=C(Nc1nsc2c(=O)n(Cc3ccc(F)cc3F)cnc12)C(F)(F)F` [Example I-85] gave an ECHCG of 100.

A further experiment concerns SETVI. Briefly: Herbicidal action pre-emergence (PE). The conditions noted are these: dosage 320 g/ha. The class given is in vivo, Setaria viridis.
Regarding `COCC(=O)Nc1nsc2c(=O)n(CC3CCCCC3)cnc12` [Example I-69], the SETVI amounted to 100.

For the molecule `COC(=O)CC(=O)Nc1nsc2c(=O)n(CC3CCCCC3)cnc12` [Example I-71], the SETVI was determined as 100.

In turn, `O=C(Nc1nsc2c(=O)n(Cc3ccc(F)cc3F)cnc12)C(F)(F)F` [Example I-85] gave an SETVI of 100.

The subject of the next experiment is AMARE. Briefly: Herbicidal action pre-emergence (PE). It is filed as in vivo, Amaranthus retroflexus. The conditions noted are these: dosage 320 g/ha.
`O=C(Nc1nsc2c(=O)n(CC3CCCCC3)cnc12)c1ccc(Cl)cc1` [Example I-18] had an AMARE of 100.

Turning to `COC(=O)C(=O)Nc1nsc2c(=O)n(CC3CCCCC3)cnc12` [Example I-70], the AMARE stood at 100.

The molecule `O=C(Nc1nsc2c(=O)n(CC3CCCCC3)cnc12)C1CC1` [Example I-07] showed an AMARE of 100.

In turn, `O=C(Nc1nsc2c(=O)n(CC3CCCCC3)cnc12)c1cccnc1` [Example I-06] returned an AMARE of 100.

Regarding `COCC(=O)Nc1nsc2c(=O)n(CC3CCCCC3)cnc12` [Example I-69], the AMARE amounted to 100.

Consider `COC(=O)CC(=O)Nc1nsc2c(=O)n(CC3CCCCC3)cnc12` [Example I-71], for which the AMARE was 100.

For `CC(=O)Nc1nsc2c(=O)n(Cc3ccc(F)cc3F)cnc12` [Example I-79], the AMARE is recorded as 100.

For `O=C(Nc1nsc2c(=O)n(CC3CCCCC3)cnc12)c1cc(Cl)cc(Cl)c1` [Example I-20], the AMARE is 100.

As to `O=C(Nc1nsc2c(=O)n(Cc3ccc(F)cc3F)cnc12)C(F)(F)F` [Example I-85], the AMARE stood at 100.

A further experiment has as its system VIOTR. Briefly: Herbicidal action pre-emergence (PE). It is filed as in vivo, Viola tricolor. The conditions noted are these: dosage 320 g/ha.
In turn, `O=C(Nc1nsc2c(=O)n(CC3CCCCC3)cnc12)c1ccc(Cl)cc1` [Example I-18] came in with a VIOTR of 100.

`COC(=O)C(=O)Nc1nsc2c(=O)n(CC3CCCCC3)cnc12` [Example I-70] came in with a VIOTR of 100.

Molecule `O=C(Nc1nsc2c(=O)n(CC3CCCCC3)cnc12)C1CC1` [Example I-07] registered a VIOTR of 100.

In turn, `O=C(Nc1nsc2c(=O)n(CC3CCCCC3)cnc12)c1cccnc1` [Example I-06] showed a VIOTR of 100.

With `COCC(=O)Nc1nsc2c(=O)n(CC3CCCCC3)cnc12` [Example I-69], the VIOTR is 100.

As to `COC(=O)CC(=O)Nc1nsc2c(=O)n(CC3CCCCC3)cnc12` [Example I-71], the VIOTR stood at 100.

With `CC(=O)Nc1nsc2c(=O)n(Cc3ccc(F)cc3F)cnc12` [Example I-79], the VIOTR was determined as 100.

Consider `O=C(Nc1nsc2c(=O)n(CC3CCCCC3)cnc12)c1cc(Cl)cc(Cl)c1` [Example I-20], for which the VIOTR is 100.

As to `O=C(Nc1nsc2c(=O)n(Cc3ccc(F)cc3F)cnc12)C(F)(F)F` [Example I-85], the VIOTR turned out to be 100.

The subject of the next experiment is MATIN. Kind of experiment: Herbicidal action pre-emergence (PE). The class given is in vivo, Matricaria inodora. Conditions: dosage 320 g/ha.
Molecule `COCC(=O)Nc1nsc2c(=O)n(CC3CCCCC3)cnc12` [Example I-69] came in with an MATIN of 100.

The molecule `COC(=O)CC(=O)Nc1nsc2c(=O)n(CC3CCCCC3)cnc12` [Example I-71] registered an MATIN of 100.

In turn, `O=C(Nc1nsc2c(=O)n(Cc3ccc(F)cc3F)cnc12)C(F)(F)F` [Example I-85] gave an MATIN of 100.

Another experiment relates to POLCO. Briefly: Herbicidal action pre-emergence (PE). The conditions noted are these: dosage 320 g/ha. It is filed as in vivo, Polygonum convolvulus.
On to `COCC(=O)Nc1nsc2c(=O)n(CC3CCCCC3)cnc12` [Example I-69], for which the POLCO amounted to 100.

`COC(=O)CC(=O)Nc1nsc2c(=O)n(CC3CCCCC3)cnc12` [Example I-71] displayed a POLCO of 100.

Consider `O=C(Nc1nsc2c(=O)n(Cc3ccc(F)cc3F)cnc12)C(F)(F)F` [Example I-85], for which the POLCO is given as 100.

A further experiment concerns ALOMY. Kind of experiment: Herbicidal action pre-emergence (PE). The class given is in vivo, Alopecurus myosuroides. Conditions: dosage 320 g/ha.
As to `O=C(Nc1nsc2c(=O)n(CC3CCCCC3)cnc12)c1ccc(Cl)cc1` [Example I-18], the ALOMY amounted to 80.

In the case of `COC(=O)C(=O)Nc1nsc2c(=O)n(CC3CCCCC3)cnc12` [Example I-70], the ALOMY is given as 100.

`O=C(Nc1nsc2c(=O)n(CC3CCCCC3)cnc12)C1CC1` [Example I-07] gave an ALOMY of 100.

Consider `O=C(Nc1nsc2c(=O)n(CC3CCCCC3)cnc12)c1cccnc1` [Example I-06], for which the ALOMY is 90.

`CC(=O)Nc1nsc2c(=O)n(Cc3ccc(F)cc3F)cnc12` [Example I-79] yielded an ALOMY of 100.

Regarding `O=C(Nc1nsc2c(=O)n(CC3CCCCC3)cnc12)c1cc(Cl)cc(Cl)c1` [Example I-20], the ALOMY worked out at 80.

The subject of a further experiment is SETVI. Kind of experiment: Herbicidal action post-emergence (PO). The class given is in vivo, Setaria viridis. The conditions noted are these: dosage 320 g/ha.
Turning to `COC(=O)C(=O)Nc1nsc2c(=O)n(CC3CCCCC3)cnc12` [Example I-70], the SETVI was determined as 100.

`O=C(Nc1nsc2c(=O)n(CC3CCCCC3)cnc12)C1CC1` [Example I-07]: the SETVI came out at 100.

The molecule `COCC(=O)Nc1nsc2c(=O)n(CC3CCCCC3)cnc12` [Example I-69] gave an SETVI of 100.

As for `COC(=O)CC(=O)Nc1nsc2c(=O)n(CC3CCCCC3)cnc12` [Example I-71], the SETVI is given as 100.

Take `O=C(Nc1nsc2c(=O)n(Cc3ccc(F)cc3F)cnc12)C(F)(F)F` [Example I-85]: the SETVI was determined as 100.

The next experiment has as its system AMARE. Briefly: Herbicidal action post-emergence (PO). It is filed as in vivo, Amaranthus retroflexus. The conditions noted are these: dosage 320 g/ha.
`COC(=O)C(=O)Nc1nsc2c(=O)n(CC3CCCCC3)cnc12` [Example I-70] came in with an AMARE of 100.

With `O=C(Nc1nsc2c(=O)n(CC3CCCCC3)cnc12)C1CC1` [Example I-07], the AMARE worked out at 100.

The molecule `O=C(Nc1nsc2c(=O)n(CC3CCCCC3)cnc12)c1cccnc1` [Example I-06] had an AMARE of 100.

In turn, `COCC(=O)Nc1nsc2c(=O)n(CC3CCCCC3)cnc12` [Example I-69] had an AMARE of 100.

As for `COC(=O)CC(=O)Nc1nsc2c(=O)n(CC3CCCCC3)cnc12` [Example I-71], the AMARE came out at 100.

In the case of `CC(=O)Nc1nsc2c(=O)n(Cc3ccc(F)cc3F)cnc12` [Example I-79], the AMARE came to 100.

For `O=C(Nc1nsc2c(=O)n(Cc3ccc(F)cc3F)cnc12)C(F)(F)F` [Example I-85], the AMARE was 100.

The test system of another experiment is VIOTR. Briefly: Herbicidal action post-emergence (PO). It is filed as in vivo, Viola tricolor. Conditions: dosage 320 g/ha.
Molecule `COC(=O)C(=O)Nc1nsc2c(=O)n(CC3CCCCC3)cnc12` [Example I-70] came in with a VIOTR of 100.

Turning to `O=C(Nc1nsc2c(=O)n(CC3CCCCC3)cnc12)C1CC1` [Example I-07], the VIOTR was found to be 100.

As to `O=C(Nc1nsc2c(=O)n(CC3CCCCC3)cnc12)c1cccnc1` [Example I-06], the VIOTR is reported as 100.

Molecule `COCC(=O)Nc1nsc2c(=O)n(CC3CCCCC3)cnc12` [Example I-69] showed a VIOTR of 100.

The molecule `COC(=O)CC(=O)Nc1nsc2c(=O)n(CC3CCCCC3)cnc12` [Example I-71] displayed a VIOTR of 100.

Regarding `CC(=O)Nc1nsc2c(=O)n(Cc3ccc(F)cc3F)cnc12` [Example I-79], the VIOTR is 100.

In turn, `O=C(Nc1nsc2c(=O)n(Cc3ccc(F)cc3F)cnc12)C(F)(F)F` [Example I-85] displayed a VIOTR of 100.

The next experiment relates to ABUTH. Briefly: Herbicidal action post-emergence (PO). It is filed as in vivo, Abutilon theophrasti. Conditions: dosage 320 g/ha.
`COC(=O)C(=O)Nc1nsc2c(=O)n(CC3CCCCC3)cnc12` [Example I-70]: the ABUTH was 80.

Consider `O=C(Nc1nsc2c(=O)n(CC3CCCCC3)cnc12)C1CC1` [Example I-07], for which the ABUTH worked out at 80.

Molecule `O=C(Nc1nsc2c(=O)n(CC3CCCCC3)cnc12)c1cccnc1` [Example I-06] displayed an ABUTH of 100.

With `COCC(=O)Nc1nsc2c(=O)n(CC3CCCCC3)cnc12` [Example I-69], the ABUTH is listed as 90.

For the molecule `COC(=O)CC(=O)Nc1nsc2c(=O)n(CC3CCCCC3)cnc12` [Example I-71], the ABUTH is given as 100.

For `CC(=O)Nc1nsc2c(=O)n(Cc3ccc(F)cc3F)cnc12` [Example I-79], the ABUTH is given as 90.

`O=C(Nc1nsc2c(=O)n(Cc3ccc(F)cc3F)cnc12)C(F)(F)F` [Example I-85]: the ABUTH turned out to be 80.

A further experiment relates to PHBPU. Kind of experiment: Herbicidal action post-emergence (PO). It is filed as in vivo, Pharbitis purpurea. Conditions: dosage 320 g/ha.
`COC(=O)C(=O)Nc1nsc2c(=O)n(CC3CCCCC3)cnc12` [Example I-70] had a PHBPU of 100.

For the molecule `O=C(Nc1nsc2c(=O)n(CC3CCCCC3)cnc12)C1CC1` [Example I-07], the PHBPU is 100.

`COCC(=O)Nc1nsc2c(=O)n(CC3CCCCC3)cnc12` [Example I-69] registered a PHBPU of 100.

For the molecule `COC(=O)CC(=O)Nc1nsc2c(=O)n(CC3CCCCC3)cnc12` [Example I-71], the PHBPU is on record as 100.

`O=C(Nc1nsc2c(=O)n(Cc3ccc(F)cc3F)cnc12)C(F)(F)F` [Example I-85]: the PHBPU is 100.

Another experiment relates to Puccinia recondita. Kind of experiment: In vivo preventive test on Puccinia recondita (brown rust on wheat). Conditions: 100 ppm of active ingredient; wheat plants; evaluated 11 days after the inoculation. Here is the method:
4) Example: In Vivo Preventive Test on Puccinia recondita (Brown Rust on Wheat) [table] The active ingredients were made soluble and homogenized in a mixture of Dimethyl sulfoxide/Acetone//Tween® 80 and then diluted in water to the desired concentration. The young plants of wheat were treated by spraying the active ingredient prepared as described above. Control plants were treated only with an aqueous solution of Acetone/Dimethyl sulfoxide/Tween® 80. After 24 hours, the plants were contaminated by spraying the leaves with an aqueous suspension of Puccinia recondita spores.
Consider `O=C(Nc1nsc2c(=O)n(CC3CCCCC3)cnc12)C1CC1` [Example I-07], for which the efficacy result is given as “at least 70%”.
